# Experimental data reported in US20240415858A1, “PROMOTING MYELINATION BY N-ACETYLGLUCOSAMINE AND MODULATION OF N-GLYCAN BRANCHING” (THE REGENTS OF THE UNIVERSITY OF CALIFORNIA, priority 2021, published 2024).
# Legend:
# [1] = Brain uptake of oral [U13C]GIcNAc, LC-MS/MS of perfused brains
# [2] = tested on: mouse neural stem cells (NSC) derived from the medial ganglionic eminence of E12.5 mouse embryos; assay: Oligodendrogenesis from mouse neural stem cells in vitro (flow cytometry, immunofluorescence); format: cell-based; conditions: NSC in PDGF-AA differentiation media, 48 hrs
# Source text: Mice were bred and utilized as approved by the University of California, Irvine Institutional Animal Care and Use Committee. Dorsal forebrain cortical tissue was dissected from the medial ganglionic eminence (MGE) at embryonic day 12.5 (E12) of CD1 mice (Charles River) or Mgat5−/− C57BL/6 mice and their wildtype littermates and placed in dissection buffer comprising PBS, 0.6% glucose, and 50 U/mL Pen/Strep. Tissue from multiple embryos within the same litter were pooled, and a subsequent culture from a single litter was considered a biological repeat. The tissue was dissociated using 0.05% Trypsin-EDTA at 37° C. for 10 min, followed by treatment with soybean trypsin inhibitor (Life Technologies). Dissociated cells were re-suspended in proliferation medium comprising DMEM, 1× B27, 1× N2, 1 mM sodium pyruvate, 2 mM L-glutamine, 1 mM N-acetylcysteine, 20 ng/mL EGF (PeproTech), 10 ng/mL bFGF (PeproTech), and 2 μg/mL heparin and seeded at 150,000 cells/mL (non-tissue culture treated plastic plates) and grown as non-adherent spheres. Cell cultures were passaged approximately every 3 days using enzyme-free NeuroCult Chemical Dissociation Kit (Mouse) (StemCell Technologies). Cultures were passaged at least once prior to experimental use. For experiments, passaged cells were cultured in proliferation media (bFGF and EGF) or differentiation media (bFGF (10 ng/ml) and PDGF-AA (10 ng/ml); Life technologies) for 48 hours with or without the presence of GIcNAc (Ultimate Glucosamine, Wellesley Therapeutics) or kifunensine (GlycoSyn). Neurospheres were dispersed using the enzyme-free NeuroCult kit before being analyzed by flow cytometry using one or more of the following antibodies: anti-CD140a/PDGF-RA PE conjugate (1:200, A15785, Molecular Probes), anti-04 Alexa Fluor 488 conjugated (1:200, FAB1326G, RnD systems), Anti-GaIC Alexa Fluor 647 1:200, MAB342-AF647, Millipore), Anti-Olig2 (1:200, AB9610, Millipore) with anti-rabbit Alexa Fluor 488 (1:200, thermofisher).
# For neural stem cell (NSC) immunofluorescence, whole neurospheres were seeded onto laminin-coated coverslips (Neuvitro) in proliferation medium. After 24 hours, proliferation media was removed and replaced with differentiation medium (same components as proliferation medium but excluding EGF, bFGF, and heparin) to induce differentiation. For analysis of mouse brains, brains were incubated in 30% sucrose for at least 72 hours, embedded in OCT (Tissue-tek), frozen for at least 48 hours at −80° C., and then cut at 40 microns on a cryostat. Multiple sections from −1 bregma to −2.5 bregma were then stained with antibodies for MBP (1:100; MAB386, Millipore), Olig2 (1:200; AB9610, Millipore), CC1 (1:100; OP90, Millipore), degraded MBP (1:200, AB5864, Millipore) and Amyloid Precursor Protein (APP, 1:200; clone 22C11). After overnight incubation with primary antibody, tissues were washed and incubated with secondary antibodies: goat anti-rat Alexa-fluor 488 (1:200, Thermofisher), goat anti-rabbit TxRd (1:200, Thermofisher). APP is a marker for neuro-axonal damage while co-staining for CC1 and Olig2 are markers of mature oligodendrocytes. In order to examine the amount of myelin, slices were incubated in Fluoromyelin (1:300; F34651, Thermofisher) for 45 minutes. Images were acquired on a Keyence fluorescence microscope. Mean fluorescence intensity of the medial corpus callosum was measured using ImageJ.
# Oligodendrogenesis were examined in vitro using mouse neural stem cells (NSC) derived from the medial ganglionic eminence of E12.5 mouse embryos, where OPC's first appear. […] Consistent with increased PDGFRα surface expression, GIcNAc also promoted pre-oligodendrocyte differentiation as evidenced by augmented expression of Oligodendrocyte Transcription Factor (OLIG2) and increased numbers of 04 and GaIC positive cells (FIGS. 1A, 1B and 1C, FIGS. 5B and 5C). […]
Molecule,UDP-[U13C]-HexNAc in brain ([1]; suckling pups of treated lactating mothers),"UDP-[U13C]-HexNAc in brain ([1]; treated adult female mice, 1 mg/mL in drinking water, perfused brains)",PDGFRα surface expression [2],number of O4 cells induced by PDGF-AA differentiation media [2]
N-Acetyl-D-[UL-^13C6]glucosamine [[U^13C]GIcNAc],identified,identified,–,–
"O=C1N[C@@H]2[C@@H](O)[C@@H](O)[C@H](O)[C@@H](CO)N2C1=O [kifunensine, reference compound]",–,–,significantly reduced,significantly reduced
